Holding throughout (test): DTP human tumour cell line panel, 48 h
Assay [1] has as its system HCT-15 colon.
Assay [2] relates to K-562 leukemia.
Assay [3] has as its system NCI-H23 lung.
The test system of assay [4] is SK-MEL-28 melanoma.
The test system of assay [5] is SN12C renal.
Assay [6] has as its system SNB-19 CNS.
The subject of assay [7] is U251 CNS.
The subject of assay [8] is UO-31 renal.

Each structure is given as a SMILES string.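 The compound was tested at five concentrations on cells cultured in 96-well plates, with a 48-hour exposure period. Abbreviation: GI50, concentration required for 50% inhibition of growth. TGI: total growth inhibition.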 Bounds are passed on as bounds.

GI50 and TGI data for 13 compounds are collected here from PubChem BioAssay (NCI).

As to `N.N.N.N.N.N#Cc1nn[n-]n1.[Cl-].[Co+3]`, the GI50 in assay [1], in assay [2], in assay [3], in assay [4], in assay [5] and in assay [6] was more than 100 µM throughout. In addition, the GI50 in assay [7] and in assay [8] was more than 100 µM each time. For the same compound, the TGI in assay [1], in assay [2], in assay [3], in assay [4], in assay [5] and in assay [6] was more than 100 µM each time. Further, the concentration for total growth inhibition (TGI) in assay [7] and in assay [8] was more than 100 µM in each case.
For `Cn1cnc([N+](=O)[O-])c1Sc1nc2ccccc2o1`, the TGI (commonly the concentration giving total growth inhibition) in assay [1] came out at 11.2 µM; in assay [2], 11.3 µM; in assay [3] it was 17.1 µM; in assay [4], 18.6 µM; in assay [5], 18.5 µM; in assay [6], 30.9 µM. In addition, the concentration for total growth inhibition (TGI) in assay [7] is 26.2 µM; in assay [8], 24.8 µM.
Turning to `O=C(Nc1ccccc1)n1cc(-c2ccccn2)c(N2CCOCC2)n1`, the TGI in assay [1] is more than 100 µM; in assay [2], more than 100 µM; in assay [5] it was more than 100 µM; in assay [6], more than 100 µM; in assay [7], more than 100 µM; in assay [8], 92.8 µM.
For the compound `Cc1ccccc1C=NC12CC3CC(CC(C3)C1)C2`, the concentration for total growth inhibition (TGI) in assay [1], in assay [2], in assay [3], in assay [4], in assay [5] and in assay [6] was more than 100 µM each time. The total growth inhibition concentration (TGI) in assay [7] and in assay [8] was more than 100 µM in each case.
Turning to `N#CCCN(C1=NN(C(=O)CC(=O)Nc2ccc(Cl)cc2)C(c2ccccc2)C1)c1ccc(Cl)cc1` (centres undefined), the TGI in assay [1], in assay [2], in assay [3], in assay [4], in assay [5] and in assay [6] was more than 100 µM in each case. The TGI in assay [7] and in assay [8] was more than 100 µM throughout.
As to `O=C(CCC(=O)Nc1ccc(Cl)cc1)CC(=O)c1ccc2ccccc2c1`, the TGI in assay [1], in assay [2], in assay [3], in assay [4], in assay [5] and in assay [6] was more than 100 µM throughout. Also, the TGI in assay [7] and in assay [8] was more than 100 µM in each case.
For `Cc1cc2nc3c(=O)[nH]c(=O)nc-3n(CC(O)C(O)C(O)CO)c2cc1N` (centres undefined), the TGI in assay [1], in assay [2], in assay [3], in assay [4], in assay [5] and in assay [6] was more than 100 µM in each case. Moreover, in assay [8], the total growth inhibition concentration (TGI) was more than 100 µM.
With `Cc1ccc2nc(Sc3c([N+](=O)[O-])ncn3C)[nH]c2c1`, the total growth inhibition concentration (TGI) was 32.4 µM in assay [1]; 50.5 µM in assay [3]; more than 100 µM in assay [4]; 35.8 µM in assay [5]; more than 100 µM in assay [6]; more than 100 µM in assay [7]. In addition, the TGI in assay [8] is 88.4 µM.
Regarding `Cc1cc(Cl)ccc1NC(=O)CC1SC(=NC(=O)c2ccccc2Cl)NC1=O` (centres undefined), the total growth inhibition concentration (TGI) in assay [1] is 33.1 µM; in assay [2], 47.6 µM; in assay [3] it was more than 100 µM; in assay [4] it was 44.8 µM; in assay [5], 33.5 µM; in assay [6] it was more than 100 µM. For the same compound, the concentration for total growth inhibition (TGI) in assay [7] was determined as 30.1 µM; in assay [8] it was 44.6 µM.
Regarding `O=C(CN(Cc1ccccc1)Cc1ccccc1)N1CCc2c([nH]c3ccccc23)C1c1cccnc1` (centres undefined), the TGI in assay [1] was more than 100 µM; in assay [2] it was more than 100 µM; in assay [3], 79.3 µM; in assay [4] it was more than 100 µM; in assay [5], 8.64 µM; in assay [6], more than 100 µM. For the same compound, the TGI is 26.7 µM in assay [7] and 9.54 µM in assay [8].
In the case of `CC12CCCC(C#N)(C1)OC2=O` (centres undefined), the TGI in assay [2], in assay [3], in assay [4], in assay [5], in assay [6] and in assay [7] was more than 100 µM each time. The TGI in assay [8] was more than 100 µM.
`O=C[C@]12CC=C3OC4OC5(CCCCC5)OC4[C@H]3[C@H]1C(=O)C=CC2=O` (some centres undefined): the TGI in assay [1] is 43.4 µM; in assay [4], 96.3 µM; in assay [5] it was more than 100 µM; in assay [6], more than 100 µM; in assay [7] it was 64.6 µM; in assay [8] it was 40.8 µM.
In the case of `O=CC1CCC=CC1NC(=O)OCc1ccccc1` (centres undefined), the concentration for total growth inhibition (TGI) in assay [1], in assay [2], in assay [3], in assay [4], in assay [5] and in assay [7] was more than 100 µM in each case. In assay [8], this compound gave a total growth inhibition concentration (TGI) of more than 100 µM.
